“Also recorded” adds a separate entry of the source. Residues, ends and D or L forms follow the SMILES beside them. *: point of attachment. Cbz = O=C(OCc1ccccc1)*
Columns and labels:
Format in all cases: cell-based, human
[1] = test system: A549 cells; test: Migration assay (Boyden chambers); details: PMA 100 nM, 1,10-phenanthroline 20 μM
Experimental: (§1) Knockdown of ADAMS or ADAM10 inhibited shedding of Collagen XVII and reduced laminin-5 expression in A549 cells cultured in spheroid culture.
Cell migration assay was performed using Boyden chambers. At the end of the assay, cells in the upper chamber and on the upper filter surface were removed, whereas cells on the lower filter surface were fixed with ethanol and stained with Giemsa (Sigma-Aldrich). The number of migrating cells was determined by counting cells in 10 random fields/filter at 200× magnification. Data were calculated as a percentage of migrated cells in the absence of chemoattractant or adherent culture, which was considered as 100%. All experiments were performed in triplicate.

[2] = test system: EMT markers; test: Western blot of Snail and EMT markers in A549 spheroid culture; details: PMA 100 nM, 1,10-phenanthroline 20 μM
Experimental: as §1
(§2) The lung cancer cell lines A549 and CL1-1 were obtained from the American Type Culture Collection. Cells were grown in Dulbecco's Modified Eagle Medium (DMEM) (Gibco, Grand Island, N.Y.) containing 10 units/ml penicillin, 10 μg/ml streptomycin, 2 mM glutamine, and 10% fetal bovine serum (FBS; Gibco), in a 37° C. humidified atmosphere with 5% CO2. For enrichment of cancer stem-like cells (CSCs) in spheroid culture, lung cancer cells were suspended in tumor sphere medium consisting of serum-free DMEM/F12 (Gibco), N2 supplement (Gibco), human recombinant epidermal growth factor (EGF) (20 ng/ml, PeproTech, Rocky Hill, N.J.), and basic fibroblastic growth factor (bFGF) (10 ng/ml, PeproTech). Cell colonies >100 μm in diameter and >50% in area showing 3-dimensional structure and blurred cell margins were defined as spheres. Sphere numbers were counted at day 12 of culture. Cells were harvested and protein lysates were collected for further experiments. Treatment reagents included FAK inhibitor (20 μM) (Calbiochem, San Diego, Calif.; Merk, Schwalbach, Germany), LY294002 (10 μM) (Calbiochem), 1,10-phenanthroline (20 μM) (Sigma-Aldrich; St. Louis, Mo.), PMA (100 nM) (Sigma-Aldrich) and Cyclohexamide (50 μg/ml) (Calbiochem).
(§3) Cell extracts were prepared with M-PER (Pierce, Rockford, Ill.) plus protease inhibitor cocktail (Halt™; Pierce) and protein concentrations were determined using the bicinchoninic acid (BCA) assay (Pierce). Aliquots of protein lysates were separated on SDS-10% polyacrylamide gels and transferred to PVDF membrane filters, followed by blocking with 5% blotting grade milk (Bio-Rad, Hercules, Calif.) in TBST (20 mM Tris-HCl [pH 7.6], 137 mM NaCl, 1% Tween 20). Membranes were then probed with the indicated primary antibodies, reacted with the corresponding secondary antibodies, and results detected using a chemiluminescence assay (Millipore, Billerica, Mass.). Membranes were exposed to X-ray film to visualize the bands (Amersham Pharmacia Biotech, Piscataway, N.J.).

[3] = test system: laminin-5; test: Western blot of laminin-5 level and degradation in A549 spheroid culture; details: for level of laminin 5: A549 spheroid culture 12 days, PMA 100 nM, 1,10-phenanthroline 20 μM; for laminin 5 protein half-life / degradation: A549 suspension cells, spheroid medium containing cycloheximide 50 μg/ml
Experimental: as §1, §2, §3

[4] = test system: A549 cells; test: Invasion assay (Matrigel Invasion Chambers); details: PMA 100 nM, 1,10-phenanthroline 20 μM
Experimental: as §1
Cell invasion assays were performed using 24-well BD Biocoat Matrigel Invasion Chambers (Becton, Dickinson and Company, San Jose, Calif.) according to the manufacturer's instructions. In brief, cells were seeded into upper inserts (2.5×10^4 cells/insert) in DMEM supplemented with 0.1% bovine serum albumin (BSA). Outer wells were filled with DMEM containing 10% FBS as the chemoattractant. After 24 hours of incubation, the membranes with invaded cells were stained with Giemsa (Sigma), washed and mounted on slides. The entire membrane with invading cells was counted by light microscopy. Data are expressed as the number of invaded cells/well. Each assay was performed in triplicate and repeated at least twice.

[5] = test system: A549 cells; test: Wound healing assay; details: PMA 100 nM, 1,10-phenanthroline 20 μM
Experimental: as §1
An in vitro model of the ability of A549 and CL1-1 lung cancer cells to migrate in a monolayer culture was used to measure wound healing ability. Lung cancer cells were seeded into 6-well plates and incubated overnight. The cells were disrupted by scraping them with a […] pipette tip. […] The percent of wounded area filled was calculated as follows: [(mean wound width-mean remaining width)/mean wound width]×100(%).

[6] = test system: Col XVII; test: Immunoblot of Col XVII shedding in A549 spheroid culture; details: A549 spheroid culture 12 days; PMA 100 nM, 1,10-phenanthroline 20 μM
Experimental: as §1
The lung cancer cell lines A549 and CL1-1 were obtained from the American Type Culture Collection. Cells were grown in Dulbecco's Modified Eagle Medium (DMEM) (Gibco, Grand Island, N.Y.) containing 10 units/ml penicillin, 10 μg/ml streptomycin, 2 mM glutamine, and 10% fetal bovine serum (FBS; Gibco), in a 37° C. humidified atmosphere with 5% CO2. For enrichment of cancer stem-like cells (CSCs) in spheroid culture, lung cancer cells were suspended in tumor sphere medium consisting of serum-free DMEM/F12 (Gibco), N2 supplement (Gibco), human recombinant epidermal growth factor (EGF) (20 ng/ml, PeproTech, Rocky Hill, N.J.), and basic fibroblastic growth factor (bFGF) (10 ng/ml, PeproTech). […] Sphere numbers were counted at day 12 of culture. […]
Cell extracts were prepared with M-PER (Pierce, Rockford, Ill.) plus protease inhibitor cocktail (Halt™; Pierce) and protein concentrations were determined using the bicinchoninic acid (BCA) assay (Pierce). […] Membranes were then probed with the indicated primary antibodies, reacted with the corresponding secondary antibodies, and results detected using a chemiluminescence assay (Millipore, Billerica, Mass.). […]

[7] = test system: laminin 5; test: Western blot of laminin 5 protein with cycloheximide with or without MG132; details: TICs with Col17a1 knockdown; 50 μg/ml cycloheximide; 10 μM MG132; 6, 12, 24, 36 hours
Experimental: FIGS. 5a-5k show the Col XVII-mediated suspension survival ability depends on laminin 5 and FAK activation. FIGS. 5a and 5b show the Bulk cancer cells (Bulk) and spheroid culture-enriched TICs (SPH) were cultured in spheroid condition for 10 h, followed by FIG. 5a (western blot assay), and FIG. 5b (immunofluorescence) followed by examination with a confocal microscope. […] FIGS. 5e-5f show the spheroid cultures of cells overexpressed with control shRNAs (CTR) or different Col17a1 shRNAs, si(1) and si(2) were assayed for mRNA and protein levels (FIG. 5e), and immunostaining (CCS)(FIG. 5f) followed by examination with a confocal microscope. FIG. 5g (top), western blot analysis for spheroid culture-enriched TICs expressing control shRNAs (CTR) or Col17a1 shRNAs, si(1) or si(2), treated with 50 μg/ml cycloheximide in the presence or absence of 10 μM MG132 for 6, 12, 24, and 36 hours. FIG. 5g (bottom), graphical representation of the relative band intensities of laminin 5 protein. […]
Cells were lysed and protein was extracted using M-PER (Pierce, Rockford, Ill.) plus protease inhibitor cocktail (Pierce), and the protein concentrations were determined by the BCA assay (Pierce). […] The membrane was then hybridized with primary antibodies followed by corresponding secondary antibodies, and then detected using a chemiluminescence assay (Millipore, Billerica, Mass.). […]

[8] = test system: S727 phosphorylation of STAT3; test: Western blot analysis of STAT3 S727 phosphorylation in CCS cells
Experimental: FIGS. 7a-7m show the PP2A regulates STAT3 activation at S727 and mediates suspension survival ability in TICs. […] The results are expressed as mean±SD of three independent experiments. Asterisks indicate significant differences determined by student's t-test. Bar=20 μm.
Cells were lysed and protein was extracted using M-PER (Pierce, Rockford, Ill.) plus protease inhibitor cocktail (Pierce), and the protein concentrations were determined by the BCA assay (Pierce). Aliquots of protein lysates were separated on SDS-10% polyacrylamide gels and transferred onto poly-vinylidenedifluoride (PVDF) membrane, which was blocked with 5% milk (Bio-Rad, Richmond, Calif.) in TBST. The membrane was then hybridized with primary antibodies followed by corresponding secondary antibodies, and then detected using a chemiluminescence assay (Millipore, Billerica, Mass.). Membranes were exposed to X-ray film to visualize the bands (Amersham Pharmacia Biotech, Piscataway, N.J.). Antibodies against pSTAT3 (S727) (1:1000), pSTAT3 (Y705) (1:1000), STAT3 (1:2000), PP2A C subunit (1:2000), pAkt (S473) (1:1000), β-tubulin (1:2000), Flag (1:2000), pAkt (T308) (1:1000), Akt (1:2000), ERK (1:2000), pP38 (T180 and Y182) (1:1000), P38 (1:2000), pJNK (1:1000), and pmTOR (S2448) (1:1000) were purchased from Cell Signaling Technologies. Antibodies against pPP2A (Y307) (1:2000), Oct4 (1:500), Nanog (1:500), Histone H1 (1:1000), and Sox2 (1:500) were purchased from Santa Cruz Biotechnology Inc. Antibodies against pFAK (Y397) (1:1000) were purchased from GeneTex (San Antonio, Tex.). Antibody against Col17a1 was purchased from Abcam. Antibody against Laminin y2 (1:1000) was purchased from Chemicon (Temecula, Calif.). Antibody against cleaved-caspase 3 (1:1000) was purchased from Epitomics (Burlingame, Calif.). Antibody against pERK (1:1000) was purchased from Biosource (Camerillo, Calif.).

[9] = test system: spheres formed by HT29 spheroid culture; test: Live/Dead analysis of spheres pre-treated with enzymes, then suspension culture; details: pre-treatment of spheres with enzyme, then suspension culture 24 hours
[10] = CCS bulk cancer cells, 0, 0.1, 0.5, 1 nM OA for 1 hour or 0, 5, 10, 15 nM CA for 30 min

c1cnc2c(c1)ccc1cccnc12 [1,10-phenanthroline]
cell migration [1]: reduced
EMT markers [2]: reduced
expression of Snail [2]: reduced
expression of epithelial marker E-cadherin [2]: increased
expression of mesenchymal markers [2]: decreased
level of laminin 5 [3]: negatively
laminin 5 protein half-life / degradation [3]: degraded faster
invasion [4]: reduced
wound closure [5]: reduced
shedding of COL XVII [6]: decreased

CC(C)C[C@@H](C=O)NC(=O)[C@H](CC(C)C)NC(=O)[C@H](CC(C)C)NC(=O)OCc1ccccc1 [MG132] (Cbz-Leu-Leu-Leu-aldehyde)
laminin 5 protein level [7]: restored

CCCCCCCCCCCCCC(=O)O[C@@H]1[C@@H](C)[C@@]2(O)[C@@H](C=C(CO)C[C@]3(O)C(=O)C(C)=C[C@@H]23)[C@@H]2C(C)(C)[C@]12OC(C)=O [PMA]
cell migration [1]: enhanced
EMT markers [2]: activated
expression of Snail [2]: enhanced
expression of epithelial marker E-cadherin [2]: decreased
expression of mesenchymal markers [2]: increased
level of laminin 5 [3]: positively; also recorded: enhanced
laminin 5 protein half-life / degradation [3]: longer half-life; also recorded: decreased degradation
invasion [4]: enhanced
wound closure [5]: enhanced
shedding of COL XVII [6]: increased; also recorded: stimulated

COC[C@@H]([C@H](O)[C@H](O)C(=O)NCC[C@H](C)c1nc(/C=C/C[C@@H]2O[C@]3(C[C@@H](O)[C@@H]2C)O[C@H]([C@H](C[C@H](O)[C@H](C)[C@H](O)[C@H](C)/C=C(C)/C(C)=C/C=C/C(C)=C\C#N)OC)[C@H](OP(=O)(O)O)C3(C)C)co1)N(C)C [calyculin A]
S727 phosphorylation of STAT3 [8, 10]: increased S727 phosphorylation of STAT3 in a dose-dependent manner

CCCCCCCCCCCCCC=CC(O)C(CO)NC(=O)CCCCC (stereo not shown) [ceramide C6]
S727 phosphorylation of STAT3 ([8]; CCS spheroid culture-enriched TICs, 50 nM ceramide C6 for 24 hours): reduced S727 phosphorylation of STAT3

C=C1[C@@H](O)[C@@H]2O[C@]3(CC[C@H](/C=C/[C@@H](C)[C@@H]4CC(C)=C[C@@]5(O[C@H](C[C@@](C)(O)C(=O)O)CC[C@H]5O)O4)O3)CC[C@H]2O[C@@H]1[C@@H](O)C[C@H](C)[C@H]1O[C@@]2(CCCCO2)CC[C@H]1C [okadaic acid]
S727 phosphorylation of STAT3 [8, 10]: increased S727 phosphorylation of STAT3 in a dose-dependent manner

chymotrypsin
cell death in suspension culture (Live/Dead analysis) [9]: cause cell death
